According to patent publication US6737383B1, “Herbicidal oxadiazolidines” (priority 1999, dated 2004):

What was measured:
bedstraw = assay: Test B pre/postemergence bedstraw; assay type: in vivo, Galium aparine; settings: Preemergence; for Bedstraw plant response rating: scale of 0 to 10 where 0 is no effect and 10 is complete control
How it was run: (§1)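 Herbicidal effect was estimated by eye on a ten-point control scale after plants spent twelve to sixteen days in a greenhouse following soil or foliar treatment. Foliar sprays targeted plants at one to four leaves; all doses were formulated in a non-phytotoxic solvent with surfactant.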

cocklebur = assay: Test B pre/postemergence cocklebur; assay type: in vivo, Xanthium strumarium
How it was run: as §1

corn = assay: Test B pre/postemergence corn; assay type: in vivo, Zea mays
How it was run: as §1

crabgrass = assay: Test B pre/postemergence crabgrass; assay type: in vivo, Digitaria sanguinalis
How it was run: as §1

giant foxtail = assay: Test B pre/postemergence giant foxtail; assay type: in vivo, Setaria faberii
How it was run: as §1

morningglory = assay: Test B pre/postemergence morningglory; assay type: in vivo, Ipomoea hederacea
How it was run: as §1

pigweed = assay: Test B pre/postemergence pigweed; assay type: in vivo, Amaranthus retroflexus
How it was run: as §1

rape = assay: Test B pre/postemergence rape; assay type: in vivo, Brassica napus
How it was run: as §1

soybean = assay: Test B pre/postemergence soybean; assay type: in vivo, Glycine max
How it was run: as §1

velvetleaf = assay: Test B pre/postemergence velvetleaf; assay type: in vivo, Abutilon theophrasti
How it was run: as §1

wheat = assay: Test B pre/postemergence wheat; assay type: in vivo, Triticum aestivum
How it was run: as §1

wild oat = assay: Test B pre/postemergence wild oat; assay type: in vivo, Avena fatua
How it was run: as §1

purple nutsedge = assay: Test B pre/postemergence purple nutsedge; assay type: in vivo, Cyperus rotundus
How it was run: as §1

rice = assay: Test B flood test rice; assay type: in vivo, Oryza sativa; settings: Pre-emergence
How it was run: (§2)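 Each value is a visual injury score relative to controls, with 10 meaning complete control and 0 no effect. Evaluation took place twelve to sixteen days after the 2-leaf-stage plants were treated and kept in the greenhouse.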

smallflower flatsedge = assay: Test B flood test smallflower flatsedge; assay type: in vivo, Cyperus difformis; settings: Pre-emergence
How it was run: as §2

duck salad = assay: Test B flood test duck salad; assay type: in vivo, Heteranthera limosa; settings: Pre-emergence
How it was run: as §2

[1] = Rate 1000 g/ha, scale 0 to 10 (0 no effect, 10 complete control)
[2] = Postemergence, Rate 125 g/ha, scale 0 to 10, 0 is no effect, 10 is complete control
[3] = Postemergence, Rate 250 g/ha, scale 0 to 10, 0 is no effect, 10 is complete control
[4] = Postemergence, Rate 1000 g/ha, scale 0 to 10 (0 no effect, 10 complete control)
[5] = Preemergence, Rate 250 g/ha, scale of 0 to 10 where 0 is no effect and 10 is complete control
[6] = Preemergence, Rate 500 g/ha, scale of 0 to 10 where 0 is no effect and 10 is complete control
[7] = Rate 500 g/ha, Postemergence, scale 0 to 10, 0 no effect, 10 complete control
[8] = Rate 1000 g/ha, Preemergence, scale 0 to 10 (0 no effect, 10 complete control)
[9] = Rate 125 g/ha, flood test species, scale 0 to 10 where 0 is no effect and 10 is complete control
[10] = Rate 250 g/ha, flood-test species, scale 0 to 10, 0 is no effect, 10 is complete control
[11] = Rate 500 g/ha, flood test species, scale 0 to 10 (0 no effect, 10 complete control)

Compound: CCOC(=O)C(C)N(C(=O)n1oc(=O)n(C)c1=O)c1ccc(F)cc1 (stereo not drawn) [Compound 365]
- Bedstraw plant response rating (0 to 10 scale) (bedstraw; Rate 125 g/ha): 0
- Bedstraw plant response rating (bedstraw; Rate 250 g/ha): 0
- Bedstraw plant response rating (bedstraw; Rate 500 g/ha): 0
- Plant response rating, Bedstraw (bedstraw; [1]): 0
- Plant response rating, Cocklebur (cocklebur; [2]): 0
- Plant response rating, Cocklebur (cocklebur; [3]): 0
- Cocklebur plant response rating (cocklebur; [4]): 0
- Cocklebur plant response rating (0 to 10 scale) (cocklebur; Preemergence, Rate 125 g/ha): 0
- Cocklebur plant response rating (cocklebur; [5]): 0
- Cocklebur plant response rating (cocklebur; [6]): 0
- Plant response rating, Cocklebur (cocklebur; [7]): 0
- Plant response rating, Cocklebur (cocklebur; [8]): 0
- Plant response rating, Corn (corn; [2]): 0
- Plant response rating, Corn (corn; [3]): 0
- Corn plant response rating (corn; [4]): 0
- Corn plant response rating (0 to 10 scale) (corn; Preemergence, Rate 125 g/ha): 0
- Corn plant response rating (corn; [5]): 0
- Corn plant response rating (corn; [6]): 0
- Plant response rating, Corn (corn; [7]): 0
- Plant response rating, Corn (corn; [8]): 0
- Plant response rating, Crabgrass (crabgrass; [2]): 0
- Plant response rating, Crabgrass (crabgrass; [3]): 0
- Crabgrass plant response rating (crabgrass; [4]): 0
- Crabgrass plant response rating (0 to 10 scale) (crabgrass; Preemergence, Rate 125 g/ha): 0
- Crabgrass plant response rating (crabgrass; [5]): 0
- Crabgrass plant response rating (crabgrass; [6]): 4
- Plant response rating, Crabgrass (crabgrass; [7]): 0
- Plant response rating, Crabgrass (crabgrass; [8]): 8
- Plant response rating, Giant foxtail (giant foxtail; [2]): 0
- Plant response rating, Giant foxtail (giant foxtail; [3]): 0
- Giant foxtail plant response rating (giant foxtail; [4]): 0
- Giant foxtail plant response rating (0 to 10 scale) (giant foxtail; Preemergence, Rate 125 g/ha): 0
- Giant foxtail plant response rating (giant foxtail; [5]): 0
- Giant foxtail plant response rating (giant foxtail; [6]): 3
- Plant response rating, Giant foxtail (giant foxtail; [7]): 0
- Plant response rating, Giant foxtail (giant foxtail; [8]): 9
- Plant response rating, Morningglory (morningglory; [2]): 0
- Plant response rating, Morningglory (morningglory; [3]): 0
- Morningglory plant response rating (morningglory; [4]): 0
- Morningglory plant response rating (0 to 10 scale) (morningglory; Preemergence, Rate 125 g/ha): 0
- Morningglory plant response rating (morningglory; [5]): 0
- Morningglory plant response rating (morningglory; [6]): 0
- Plant response rating, Morningglory (morningglory; [7]): 0
- Plant response rating, Morningglory (morningglory; [8]): 0
- Plant response rating, Redroot pigweed (pigweed; [2]): 0
- Plant response rating, Redroot pigweed (pigweed; [3]): 0
- Redroot pigweed plant response rating (pigweed; [4]): 0
- Redroot pigweed plant response rating (0 to 10 scale) (pigweed; Preemergence, Rate 125 g/ha): 0
- Redroot pigweed plant response rating (pigweed; [5]): 0
- Redroot pigweed plant response rating (pigweed; [6]): 0
- Plant response rating, Redroot pigweed (pigweed; [7]): 0
- Plant response rating, Redroot pigweed (pigweed; [8]): 0
- Plant response rating, Rape (rape; [2]): 0
- Plant response rating, Rape (rape; [3]): 0
- Rape plant response rating (rape; [4]): 0
- Rape plant response rating (0 to 10 scale) (rape; Preemergence, Rate 125 g/ha): 0
- Rape plant response rating (rape; [5]): 0
- Rape plant response rating (rape; [6]): 0
- Plant response rating, Rape (rape; [7]): 0
- Plant response rating, Rape (rape; [8]): 0
- Plant response rating, Soybean (soybean; [2]): 0
- Plant response rating, Soybean (soybean; [3]): 2
- Soybean plant response rating (soybean; [4]): 3
- Soybean plant response rating (0 to 10 scale) (soybean; Preemergence, Rate 125 g/ha): 0
- Soybean plant response rating (soybean; [5]): 0
- Soybean plant response rating (soybean; [6]): 0
- Plant response rating, Soybean (soybean; [7]): 2
- Plant response rating, Soybean (soybean; [8]): 0
- Plant response rating, Velvetleaf (velvetleaf; [2]): 0
- Plant response rating, Velvetleaf (velvetleaf; [3]): 0
- Velvetleaf plant response rating (velvetleaf; [4]): 0
- Velvetleaf plant response rating (0 to 10 scale) (velvetleaf; Preemergence, Rate 125 g/ha): 0
- Velvetleaf plant response rating (velvetleaf; [5]): 0
- Velvetleaf plant response rating (velvetleaf; [6]): 0
- Plant response rating, Velvetleaf (velvetleaf; [7]): 0
- Plant response rating, Velvetleaf (velvetleaf; [8]): 0
- Plant response rating, Wheat (wheat; [2]): 0
- Plant response rating, Wheat (wheat; [3]): 0
- Wheat plant response rating (wheat; [4]): 0
- Wheat plant response rating (0 to 10 scale) (wheat; Preemergence, Rate 125 g/ha): 0
- Wheat plant response rating (wheat; [5]): 0
- Wheat plant response rating (wheat; [6]): 0
- Plant response rating, Wheat (wheat; [7]): 0
- Plant response rating, Wheat (wheat; [8]): 0
- Plant response rating, Wild oats (wild oat; [2]): 0
- Plant response rating, Wild oats (wild oat; [3]): 0
- Wild oats plant response rating (wild oat; [4]): 0
- Wild oats plant response rating (0 to 10 scale) (wild oat; Preemergence, Rate 125 g/ha): 0
- Wild oats plant response rating (wild oat; [5]): 0
- Wild oats plant response rating (wild oat; [6]): 0
- Plant response rating, Wild oats (wild oat; [7]): 0
- Plant response rating, Wild oats (wild oat; [8]): 0
- Plant response rating, Nutsedge (purple nutsedge; [2]): 0
- Plant response rating, Nutsedge (purple nutsedge; [3]): 0
- Nutsedge plant response rating (purple nutsedge; [4]): 0
- Nutsedge plant response rating (purple nutsedge; [5]): 0
- Nutsedge plant response rating (purple nutsedge; [6]): 0
- Plant response rating, Nutsedge (purple nutsedge; [7]): 0
- Plant response rating, Nutsedge (purple nutsedge; [8]): 0
- Rice plant response rating (rice; [1]): 0
- Rice plant response rating (rice; [9]): 0
- Rice plant response rating (rice; [10]): 0
- Rice plant response rating (rice; [11]): 0
- S. Flatsedge plant response rating (smallflower flatsedge; [1]): 0
- S. Flatsedge plant response rating (smallflower flatsedge; [9]): 0
- S. Flatsedge plant response rating (smallflower flatsedge; [10]): 0
- S. Flatsedge plant response rating (smallflower flatsedge; [11]): 0
- Ducksalad plant response rating (duck salad; [1]): 0
- Ducksalad plant response rating (duck salad; [9]): 0
- Ducksalad plant response rating (duck salad; [10]): 0
- Ducksalad plant response rating (duck salad; [11]): 0
